Patent US7691965B2, “Helical synthetic peptides that stimulate cellular cholesterol efflux” (The Regents of the University of California, priority 2002, dated 2010)
Where a SMILES comes first, the peptide text is derived from it.

Experiments:
[1] = Relative lipid binding affinity by surface balance technique (monolayer exclusion pressure); assay type: physicochemical; settings: surface balance technique
From the text: Relative Lipid Binding Affinity, Hydrophobicity, and Amphiphilicity of Synthetic Peptides—In some experiments, the relative lipid binding affinity of unique peptides was quantified using a surface balance technique (Gillotte, K L. et al., J. Biol. Chem., 274:2021-2028 (1999)). For routine analyses, a turbid solution of dimyristoylphosphatidylcholine (DMPC) was used to assess the relative capacity of synthetic peptides to solubilize phospholipid as described (Palgunachari, M. N. et al., Arterioscler. Thromb. Vasc. Biol., 16:328-338 (1996); McLean, L. R. and Hagaman, K. A., Biochim. Biophys. Acta, 1167:289-295 (1993)). The DMPC was used at a final concentration of 0.08 mg/ml in 10 mM Tris-saline (pH 7.4). The final weight ratio of peptides relative to DMPC was 1:1. The absorbance (400 nm) of samples was monitored continuously over a period of 30 min at 25° C. Hydrophobicity of helical peptides was calculated using the consensus scale (Eisenberg D., Annu. Rev. Biochem., 53:593-623 (1984)). The hydrophobic moment (kcal/mol) of synthetic peptides, which is a measure of helix amphiphilicity, was calculated as described by Eisenberg et al. (Eisenberg, D. et al., Nature, 299:371-374 (1982)).

ABCA1 [2] = molecular target: T1, ABCA1 (Mus musculus, UniProt P41233); test: Cellular cholesterol efflux from [3H]cholesterol-labeled J774 macrophages with and without cAMP analog; assay type: cell-based; parameters: endogenous in cells; host or cells: J774 macrophages treated with a cAMP analog (CPT-cAMP or 8-bromo-cAMP); settings: lipid-free acceptor, J774 macrophages with vs without cAMP analog
From the text: Suitable cholesterol efflux assays are described in, e.g., Bielicki, J. K and Oda, M. N., Biochemistry, 41:2089-2096 (2002); Jia, Z. et al., Biochem. Biophys. Res. Common., 297:206-213 (2002). In some embodiments, a polypeptide known to mediate cholesterol efflux (e.g., helix 9/10 of Apo A-I) is used to screen for additional mediators of cholesterol efflux in a cell based assay. For example, cell lines in which cholesterol efflux can be enhanced using a cAMP analog that up-regulates ABCA1 protein expression (e.g., J774 macrophages) can conveniently be used to assess the ability of an Apo A-I, Apo A-II, Apo A-IV, Apo E, Apo C-I, Apo C-II, Apo C-III, or Serum Amyloid A peptide to mediate cholesterol efflux. The cells are incubated with labeled cholesterol (e.g., [^3H]cholesterol) under conditions appropriate for cholesterol uptake by the cells. cAMP or cAMP analogs (e.g., CPT-cAMP) is incubated with the cells for a suitable time before the initiation of cellular cholesterol efflux, i.e., prior to contacting the cells with helix 9/10 of Apo A-I or the test compound. Measurement of labeled cholesterol appearing in the medium is used to determine the cholesterol efflux mediating activity of the test compound.
Cellular Cholesterol Efflux Protocol—J774 macrophages were used to assess the cholesterol efflux properties of synthetic amphipathic α-helical peptides (Bielicki, J. K and Oda, M. N., Biochemistry, 41:2089-2096 (2002); Jia, Z. et al., Biochem. Biophys. Res. Common., 297:206-213 (2002)). This cell line was chosen because cholesterol efflux can be enhanced using a cAMP analog that up-regulates ABCA1 protein expression. The cells were seeded onto 24-well culture plates and labeled for 48 h with [^3H]cholesterol in RPMI 1640 supplemented with 1% fetal bovine serum. The cAMP analog CPT-cAMP was added (0.3 mM, final concentration) to the cells at least 12 h before the initiation of cellular cholesterol efflux. Synthetic peptides in lipid-free form were added to cells in serum-free RPMI. The lipid-free form of full-length recombinant apoA-I was used as a positive control to define apparent ABCA1-dependent cholesterol efflux in the presence and absence of cAMP stimulation. Efflux results were expressed as a percentage of the initial cellular [^3H] appearing in the medium as a function of time subtracting the background efflux obtained using serum-free medium alone.

ABCA1 [3] = molecular target: T1, ABCA1; test: ABCA1 stabilization: immunoblot of ABCA1 protein in J774 macrophage membranes after cAMP withdrawal; assay type: cell-based; parameters: J774 macrophages were used to assess relative ABCA1 protein levels in the presence and absence of synthetic peptides; endogenous in cells; host or cells: J774 macrophages treated with a cAMP analog (CPT-cAMP or 8-bromo-cAMP); settings: 20 μg/ml peptide, 6 h without cAMP, J774 macrophages
Procedure: J774 macrophages were incubated (18 h) with 0.5 mM 8-bromo-cAMP in medium containing 0.1% bovine serum albumin to up-regulate ABCA1 protein expression. Washed cells were subsequently exposed for 6 h to bovine serum albumin medium with (+) or without (−) 8-bromo-cAMP and the indicated synthetic peptides (20 μg/ml). None refers to no peptides. The cellular membrane content of ABCA1 protein was measured by immunoblot analysis.
ABCA1 Stabilization—J774 macrophages were used to assess relative ABCA1 protein levels in the presence and absence of synthetic peptides. Cells were grown in 10% fetal bovine serum, extensively rinsed, and incubated (18 h) with Dulbecco's modified Eagle's medium containing 0.1% bovine serum albumin plus the cAMP analog 8-bromo-cAMP. Cells were next exposed to synthetic peptides or serum-free medium in the absence of the cAMP stimulus to evaluate whether ABCA1 protein was stabilized or degraded. Relative levels of ABCA1 protein were assessed by immunoblot analysis of cell membranes (Oram, J. F. et al., J. Biol. Chem., 278:52379-52385 (2003)). ABCA1 was visualized using an enhanced chemiluminescence detection assay.
To assess ABCA1 stabilization, J774 macrophages were treated with a cAMP analog to up-regulate ABCA1 protein expression and then incubated for 6 h without cAMP. In the absence of inducer, ABCA1 protein is rapidly degraded in these cells (FIG. 9). […] Thus, it appears that the helical combinations that stimulate cholesterol efflux also stabilize the ABCA1 transporter.

T1 sequence (P41233 whole entry): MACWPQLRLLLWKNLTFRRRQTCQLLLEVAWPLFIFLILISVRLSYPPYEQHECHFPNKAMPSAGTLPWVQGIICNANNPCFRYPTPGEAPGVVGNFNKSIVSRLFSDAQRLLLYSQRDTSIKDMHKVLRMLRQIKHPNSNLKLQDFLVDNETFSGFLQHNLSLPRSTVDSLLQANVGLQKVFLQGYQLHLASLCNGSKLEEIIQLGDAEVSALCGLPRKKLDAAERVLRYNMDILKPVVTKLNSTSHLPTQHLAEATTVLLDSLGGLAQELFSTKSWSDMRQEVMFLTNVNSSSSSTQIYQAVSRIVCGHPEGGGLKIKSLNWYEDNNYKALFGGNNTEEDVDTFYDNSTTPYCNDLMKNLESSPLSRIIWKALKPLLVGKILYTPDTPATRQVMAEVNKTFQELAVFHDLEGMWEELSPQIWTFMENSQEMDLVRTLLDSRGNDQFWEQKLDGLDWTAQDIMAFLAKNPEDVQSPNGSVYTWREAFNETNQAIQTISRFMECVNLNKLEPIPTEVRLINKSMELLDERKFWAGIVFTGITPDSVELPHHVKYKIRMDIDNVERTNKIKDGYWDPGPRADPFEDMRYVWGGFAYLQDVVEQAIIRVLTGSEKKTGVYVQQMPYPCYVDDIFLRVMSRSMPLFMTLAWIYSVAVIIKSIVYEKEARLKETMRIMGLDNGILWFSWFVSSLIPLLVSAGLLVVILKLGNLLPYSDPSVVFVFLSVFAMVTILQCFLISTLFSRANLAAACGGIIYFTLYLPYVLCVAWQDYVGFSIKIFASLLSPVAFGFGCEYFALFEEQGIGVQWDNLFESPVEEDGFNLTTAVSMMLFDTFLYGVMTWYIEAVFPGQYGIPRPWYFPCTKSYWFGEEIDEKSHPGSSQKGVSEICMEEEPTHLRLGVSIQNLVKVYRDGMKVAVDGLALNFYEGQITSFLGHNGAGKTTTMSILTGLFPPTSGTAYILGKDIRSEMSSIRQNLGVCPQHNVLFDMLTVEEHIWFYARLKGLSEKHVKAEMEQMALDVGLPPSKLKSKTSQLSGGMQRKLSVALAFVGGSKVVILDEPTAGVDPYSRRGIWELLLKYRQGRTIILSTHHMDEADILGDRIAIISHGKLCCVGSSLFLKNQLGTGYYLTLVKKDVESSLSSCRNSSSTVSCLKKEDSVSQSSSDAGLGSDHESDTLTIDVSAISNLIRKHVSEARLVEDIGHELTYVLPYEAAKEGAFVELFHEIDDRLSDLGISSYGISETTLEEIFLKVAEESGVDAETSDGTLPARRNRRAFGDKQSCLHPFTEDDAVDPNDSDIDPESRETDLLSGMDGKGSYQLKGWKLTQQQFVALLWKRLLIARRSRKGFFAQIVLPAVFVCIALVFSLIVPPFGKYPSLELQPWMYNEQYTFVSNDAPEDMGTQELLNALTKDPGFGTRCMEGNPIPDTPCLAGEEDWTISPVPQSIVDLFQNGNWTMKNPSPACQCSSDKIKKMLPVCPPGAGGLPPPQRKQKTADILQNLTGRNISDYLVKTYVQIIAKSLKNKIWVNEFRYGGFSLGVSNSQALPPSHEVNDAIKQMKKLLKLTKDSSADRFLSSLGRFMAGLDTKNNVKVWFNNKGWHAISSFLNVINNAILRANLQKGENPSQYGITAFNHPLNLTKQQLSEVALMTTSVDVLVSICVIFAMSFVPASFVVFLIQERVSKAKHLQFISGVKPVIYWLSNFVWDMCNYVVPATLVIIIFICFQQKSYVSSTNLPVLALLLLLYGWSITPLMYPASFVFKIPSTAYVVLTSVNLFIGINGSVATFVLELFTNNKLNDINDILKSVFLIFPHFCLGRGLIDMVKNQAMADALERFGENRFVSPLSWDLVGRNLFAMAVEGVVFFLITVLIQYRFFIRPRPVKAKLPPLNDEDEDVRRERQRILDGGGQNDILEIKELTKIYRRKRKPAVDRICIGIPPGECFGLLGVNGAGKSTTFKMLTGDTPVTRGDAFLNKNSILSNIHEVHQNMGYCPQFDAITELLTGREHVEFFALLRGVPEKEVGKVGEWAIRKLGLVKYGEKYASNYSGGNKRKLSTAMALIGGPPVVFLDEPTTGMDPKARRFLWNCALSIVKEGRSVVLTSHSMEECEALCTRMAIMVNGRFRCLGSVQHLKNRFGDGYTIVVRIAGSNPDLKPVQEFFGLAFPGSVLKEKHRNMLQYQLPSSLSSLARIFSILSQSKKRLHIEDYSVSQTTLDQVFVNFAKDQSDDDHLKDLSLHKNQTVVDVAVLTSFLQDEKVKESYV

Molecule	Monolayer exclusion pressure [1] [dynes/cm]	ABCA1-dependent cholesterol efflux (result in words) (ABCA1 [2])	ABCA1 stabilization (result in words) (ABCA1 [3])	also measured
CSCC[C@H](NC(=O)[C@H](CCC(=O)O)NC(=O)[C@H](CCC(N)=O)NC(=O)[C@H](CCCNC(=N)N)NC(=O)[C@H](CC(C)C)NC(=O)CNC(=O)[C@H](CCC(=O)O)NC(=O)[C@@H](NC(=O)[C@H](CCC(=O)O)NC(=O)[C@H](CCCCN)NC(=O)[C@H](CCC(=O)O)NC(=O)[C@H](CC(C)C)NC(=O)[C@H](CC(N)=O)NC(=O)[C@H](CC(=O)O)NC(=O)[C@H](Cc1c[nH]c2ccccc12)NC(=O)[C@H](Cc1ccccc1)NC(=O)[C@H](CCC(=O)O)NC(=O)[C@H](CCC(N)=O)NC(=O)[C@@H](NC(=O)[C@@H](NC(=O)[C@@H]1CCCN1C(C)=O)C(C)C)[C@@H](C)O)[C@@H](C)O)C(=O)N[C@@H](CO)C(=O)N1CCC[C@H]1C(=O)N[C@@H](C)C(=O)N[C@@H](CC(C)C)C(=O)N[C@@H](CCC(=O)O)C(=O)N[C@@H](CC(=O)O)C(=O)N[C@@H](CC(C)C)C(=O)N[C@@H](CCCNC(=N)N)C(=O)N[C@@H](CCC(N)=O)C(=O)NCC(=O)N[C@@H](CC(C)C)C(=O)N[C@@H](CC(C)C)C(N)=O [Helical peptide 2/9] (Ac-PVTQEFWDNLEKETEGLRQEMSPALEDLRQGLL-NH2)	19	failed to stimulate ABCA1-dependent cholesterol efflux		
CSCC[C@H](NC(=O)[C@H](CCC(=O)O)NC(=O)[C@H](CCC(N)=O)NC(=O)[C@H](CCCNC(=N)N)NC(=O)[C@H](CC(C)C)NC(=O)CNC(=O)[C@H](CCC(=O)O)NC(=O)[C@@H](NC(=O)[C@H](CCC(=O)O)NC(=O)[C@H](CCCCN)NC(=O)[C@H](CCC(=O)O)NC(=O)[C@H](CC(C)C)NC(=O)[C@H](CC(N)=O)NC(=O)[C@H](CC(=O)O)NC(=O)[C@H](Cc1c[nH]c2ccccc12)NC(=O)[C@H](Cc1ccccc1)NC(=O)[C@H](CCC(=O)O)NC(=O)[C@H](CCC(N)=O)NC(=O)[C@@H](NC(=O)[C@@H](NC(=O)[C@@H]1CCCN1C(C)=O)C(C)C)[C@@H](C)O)[C@@H](C)O)C(=O)N[C@@H](CO)C(N)=O [Helical peptide 2] (Ac-PVTQEFWDNLEKETEGLRQEMS-NH2)	17			
CSCC[C@H](NC(=O)[C@H](CCC(=O)O)NC(=O)[C@H](CCC(=O)O)NC(=O)[C@H](CCC(N)=O)NC(=O)[C@H](Cc1c[nH]c2ccccc12)NC(=O)[C@H](CCCCN)NC(=O)[C@H](CCCCN)NC(=O)[C@H](CCC(N)=O)NC(=O)[C@H](Cc1ccccc1)NC(=O)[C@H](CC(=O)O)NC(=O)[C@H](CC(=O)O)NC(=O)[C@H](CC(C)C)NC(=O)[C@H](Cc1ccc(O)cc1)NC(=O)[C@@H]1CCCN1C(C)=O)C(=O)N[C@@H](CCC(=O)O)C(=O)N[C@@H](CC(C)C)C(=O)N[C@@H](Cc1ccc(O)cc1)C(=O)N[C@@H](CCCNC(=N)N)C(=O)N[C@@H](CCC(N)=O)C(=O)N[C@@H](CCCCN)C(=O)N[C@H](C(=O)N[C@@H](CCC(=O)O)C(=O)N1CCC[C@H]1C(=O)N[C@@H](C)C(=O)N[C@@H](CC(C)C)C(=O)N[C@@H](CCC(=O)O)C(=O)N[C@@H](CC(=O)O)C(=O)N[C@@H](CC(C)C)C(=O)N[C@@H](CCCNC(=N)N)C(=O)N[C@@H](CCC(N)=O)C(=O)NCC(=O)N[C@@H](CC(C)C)C(=O)N[C@@H](CC(C)C)C(N)=O)C(C)C [Helical peptide 4/9] (Ac-PYLDDFQKKWQEEMELYRQKVEPALEDLRQGLL-NH2)		failed to mediate ABCA1-dependent cholesterol efflux		
CC(=O)N1CCC[C@H]1C(=O)N[C@@H](C)C(=O)N[C@@H](CC(C)C)C(=O)N[C@@H](CCC(=O)O)C(=O)N[C@@H](CC(=O)O)C(=O)N[C@@H](CC(C)C)C(=O)N[C@@H](CCCNC(=N)N)C(=O)N[C@@H](CCC(N)=O)C(=O)NCC(=O)N[C@@H](CC(C)C)C(=O)N[C@@H](CC(C)C)C(N)=O [Helical peptide 9] (Ac-PALEDLRQGLL-NH2)		failed to stimulate ABCA1-dependent cholesterol efflux	failed to prevent ABCA1 degradation	
CC(=O)N1CCC[C@H]1C(=O)N[C@H](C(=O)N[C@@H](CC(C)C)C(=O)N[C@@H](CCC(=O)O)C(=O)N[C@@H](CO)C(=O)N[C@@H](Cc1ccccc1)C(=O)N[C@@H](CCCCN)C(=O)N[C@H](C(=O)N[C@@H](CO)C(=O)N[C@@H](Cc1ccccc1)C(=O)N[C@@H](CC(C)C)C(=O)N[C@@H](CO)C(=O)N[C@@H](C)C(=O)N[C@@H](CC(C)C)C(=O)N[C@@H](CCC(=O)O)C(=O)N[C@@H](CCC(=O)O)C(=O)N[C@@H](Cc1ccc(O)cc1)C(=O)N[C@H](C(=O)N[C@@H](CCCCN)C(=O)N[C@@H](CCCCN)C(=O)N[C@@H](CC(C)C)C(=O)N[C@@H](CC(N)=O)C(=O)N1CCC[C@H]1C(=O)N[C@@H](C)C(=O)N[C@@H](CC(C)C)C(=O)N[C@@H](CCC(=O)O)C(=O)N[C@@H](CC(=O)O)C(=O)N[C@@H](CC(C)C)C(=O)N[C@@H](CCCNC(=N)N)C(=O)N[C@@H](CCC(N)=O)C(=O)NCC(=O)N[C@@H](CC(C)C)C(=O)N[C@@H](CC(C)C)C(N)=O)[C@@H](C)O)C(C)C)C(C)C [Helical peptide 10/9] (Ac-PVLESFKVSFLSALEEYTKKLNPALEDLRQGLL-NH2)		failed to stimulate ABCA1-dependent cholesterol efflux	failed to prevent ABCA1 degradation	
ARMEEMGSRTRDRLDEVKEQVAEVRAKLEEQAQQIRLQAEAFQARLKSWFEPLVEDMQRQWAGLVEKVQAAVGTSAAPVPSDNH (protein, apolipoprotein Apo E, C-terminal domain (aa216-299), C-terminal domain, amino acid residues 216-299 of Apo E) ARMEEMGSRTRDRLDEVKEQVAEVRAKLEEQAQQIRLQAEAFQARLKSWFEPLVEDMQRQWAGLVEKVQAAVGTSAAPVPSDNH				ABCA1-dependent cholesterol efflux (result in words) (ABCA1 [2]; listed as C-terminal domain of apoE): potent stimulator of cholesterol efflux; ABCA1-dependent cholesterol efflux (result in words) (ABCA1 [2]; listed as CT domain): more effective than full-length apoE3
